# Assays:
# normotensive dogs = experiment: Intraocular pressure and ocular surface hyperemia in normotensive dogs; type: in vivo, dog; parameters: scale not given here
# Excerpt: U.S. Pat. No. 7,091,231 describes the methods used for these in vivo tests.
# EP2 [1] = biological target: T1, EP2 (Homo sapiens, UniProt P43116); experiment: cAMP assay, EP2; type: cell-based; parameters: expressed in transfected cells; host or cells: HEK-EBNA; conditions: HEK-EBNA cells expressing EP2
# Experimental: A 384-well drug plate was prepared to contain 6 test compounds, PGE2 and cAMP in 16 serial dilutions in triplicate, using a Biomek station. HEK-EBNA cells expressing a target PG receptor subtype (EP2 or EP4) were suspended in a stimulation buffer (HBSS, 0.1% BSA, 0.5 mM IBMX and 5 mM HEPES, pH 7.4) in a density of 10^4 cells/5 μl. The reaction was initiated by mixing 5 μL drug dilutions with 5 μl of HEK-EBNA cells in a well, carried out for 30 min at room temperature, and followed by the addition of 5 μl anti-cAMP acceptor beads in the control buffer with Tween-20 (25 mM NaCl, 0.03% Tween-20, 5 mM HEPES, pH7.4). After 30 min in the dark at room temperature, the mixtures were incubated with 15 μl biotinylated-cAMP/strepavidin donor beads in Lysis/Detection buffer (0.1% BSA, 0.3% Tween-20 and 5 mM HEPES, pH7.4) for 45 min at the room temperature. Fluorescence changes were read using a Fusion-alpha HT microplate reader.
# EP4 receptors = biological target: T2, EP4 receptors (Homo sapiens, UniProt P35408); experiment: Radioligand binding [3H]PGE2, EP4 Ki; conditions: [3H]PGE2 competition, HEK-293 cells expressing EP4
# T2 construct: expressed in transfected cells; host or cells: HEK-293
# T2 sequence (P35408 whole entry): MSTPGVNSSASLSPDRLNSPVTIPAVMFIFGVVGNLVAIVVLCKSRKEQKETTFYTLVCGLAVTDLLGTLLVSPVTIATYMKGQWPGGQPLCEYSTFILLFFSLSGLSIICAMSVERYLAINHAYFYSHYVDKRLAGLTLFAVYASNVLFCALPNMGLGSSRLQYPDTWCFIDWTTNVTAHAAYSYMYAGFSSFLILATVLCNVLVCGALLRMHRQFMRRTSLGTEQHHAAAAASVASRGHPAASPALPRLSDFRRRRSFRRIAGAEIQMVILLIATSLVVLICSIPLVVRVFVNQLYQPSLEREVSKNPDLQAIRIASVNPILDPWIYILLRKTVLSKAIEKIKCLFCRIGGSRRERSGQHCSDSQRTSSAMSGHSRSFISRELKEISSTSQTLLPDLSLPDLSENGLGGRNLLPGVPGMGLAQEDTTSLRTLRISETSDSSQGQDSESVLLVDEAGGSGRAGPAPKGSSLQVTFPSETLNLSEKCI
# Experimental: (§1) HEK-293 cells stably expressing the human or feline FP receptor, or EP1, EP2, or EP4 receptors were washed with TME buffer, scraped from the bottom of the flasks, and homogenized for 30 sec using a Brinkman PT 10/35 polytron. TME buffer was added to achieve a final 40 ml volume in the centrifuge tubes (the composition of TME is 100 mM TRIS base, 20 mM MgCl2, […]; 10N HCl is added to achieve a pH of 7.4).
# (§2) The cell homogenate was centrifuged at 19000 r.p.m. for 20 min at 4° C. using a Beckman Ti-60 rotor. The resultant pellet was resuspended in TME buffer to give a final 1 mg/ml protein concentration, as determined by Biorad assay. Radioligand binding competition assays vs. [^3H-]17-phenyl PGF2α (5 nM) were performed in a 100 μl volume for 60 min. Binding reactions were started by adding plasma membrane fraction. The reaction was terminated by the addition of 4 ml ice-cold TRIS-HCl buffer and rapid filtration through glass fiber GF/B filters using a Brandel cell harvester. The filters were washed 3 times with ice-cold buffer and oven dried for one hour.
# (§3) [^3H-] PGE2 (specific activity 180 Ci mmol) was used as the radioligand for EP receptors. [^3H] 17-phenyl PGF2α was employed for FP receptor binding studies. Binding studies employing EP1, EP2, EP4 and FP receptors were performed in duplicate in at least three separate experiments. A 200 μl assay volume was used. Incubations were for 60 min at 25° C. and were terminated by the addition of 4 ml of ice-cold 50 mM TRIS-HCl, followed by rapid filtration through Whatman GF/B filters and three additional 4 ml washes in a cell harvester (Brandel). Competition studies were performed using a final concentration of 5 nM [^3H]-PGE2, or 5 nM [^3H] 17-phenyl PGF2α and non-specific binding determined with 10^−5M of unlabeled PGE2, or 17-phenyl PGF2α, according to receptor subtype studied.
# EP2 [2] = biological target: T1, EP2; experiment: Competition binding [3H]PGE2, EP2 Ki; parameters: expressed in transfected cells; host or cells: HEK 293; conditions: [3H]PGE2 competition, HEK 293 cells expressing human EP2
# Experimental: Competition binding experiments were performed in a medium containing Hank's balanced salt solution, Hepes 20 mM, pH 7.3, membranes (˜60 μg protein) or 2×10^5 cells from HEK 293 cells stably expressing human EP2 receptors, [^3H]PGE2 (10 nM) and various concentrations of test compounds in a total volume of 300 μl. Reaction mixtures were incubated at 23° C. for 60 min, and were filtered over Whatman GF/B filters under vacuum. Filters were washed three times with 5 ml ice-cold buffer containing 50 mM Tris/HCl (pH 7.3). Non-specific binding was estimated in the presence of excess unlabeled PGE2 (10 μM). Binding data fitted to the binding model for a single class of binding sites, using nonlinear regression analysis. IC50 values thus obtained were converted to Ki using the equation of Ki=(IC50/(1+[L]/KD) where [L] represents PGE2 concentration (10 nM) and KD the dissociation constant for [^3H]PGE2 at human EP2 receptors (40 nM).
# as §1, §2, §3
# hDP/Gqs5 = biological target: T3, hDP/Gqs5 (Homo sapiens, UniProt Q13258); experiment: FLIPR calcium signal, hDP; type: cell-based; conditions: read-out: Other Receptors (EC50 in nM) hDP
# T3 construct: expressed in transfected cells; host or cells: HEK-293(EBNA)
# T3 sequence (Q13258 1-359): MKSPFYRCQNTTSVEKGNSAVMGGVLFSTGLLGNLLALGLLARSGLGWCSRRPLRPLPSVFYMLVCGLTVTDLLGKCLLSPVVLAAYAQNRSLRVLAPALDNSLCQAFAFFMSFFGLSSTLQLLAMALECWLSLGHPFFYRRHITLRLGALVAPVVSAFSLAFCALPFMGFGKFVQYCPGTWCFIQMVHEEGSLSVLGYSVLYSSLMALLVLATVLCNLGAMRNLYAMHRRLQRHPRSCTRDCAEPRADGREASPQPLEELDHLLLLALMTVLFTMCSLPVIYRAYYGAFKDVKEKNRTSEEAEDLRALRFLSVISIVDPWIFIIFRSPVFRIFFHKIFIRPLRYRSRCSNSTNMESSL
# Experimental: (§4) HEK-293(EBNA) cells, stably expressing one type or subtype of recombinant human prostaglandin receptors (prostaglandin receptors expressed: hDP/Gqs5; hEP1; hEP2/Gqs5; hEP3A/Gqi5; hEP4/Gqs5; hFP; hIP; hTP), were cultured in 100 mm culture dishes in high-glucose DMEM medium containing 10% fetal bovine serum, 2 mM l-glutamine, 250 μg/ml geneticin (G418) and 200 μg/ml hygromycin B as selection markers, and 100 units/ml penicillin G, 100 μg/ml streptomycin and 0.25 μg/ml amphotericin B.
# (§5) Cells were seeded at a density of 5×10^4 cells per well in Biocoat® Poly-D-lysine-coated black-wall, clear-bottom 96-well plates (Becton-Dickinson) and allowed to attach overnight in an incubator at 37° C. Cells were then washed two times with HBSS-HEPES buffer (Hanks Balanced Salt Solution without bicarbonate and phenol red, 20 mM HEPES, pH 7.4) using a Denley Cellwash plate washer (Labsystems). After 45 minutes of dye-loading in the dark, using the calcium-sensitive dye Fluo-4 […] at a final concentration of 2 μM, plates were washed four times with HBSS-HEPES buffer to remove excess dye leaving 100 μl in each well. Plates were re-equilibrated to 37° C. for a few minutes.
# (§6) Cells were excited with an Argon laser at 488 nm, and emission was measured through a 510-570 nm bandwidth emission filter (FLIPR™, Molecular Devices, Sunnyvale, Calif.). Drug solution was added in a 50 μl volume to each well to give the desired final concentration. The peak increase in fluorescence intensity was recorded for each well. On each plate, four wells each served as negative (HBSS-HEPES buffer) and positive controls (standard agonists: BW245C (hDP); PGE2 (hEP1; hEP2/Gqs5; hEP3A/Gqi5; hEP4/Gqs5); PGF2α (hFP); carbacyclin (hIP); U-46619 (hTP), depending on receptor). The peak fluorescence change in each drug-containing well was then expressed relative to the controls.
# (§7) Compounds were tested in a high-throughput (HTS) or concentration-response (CoRe) format. In the HTS format, forty-four compounds per plate were examined in duplicates at a concentration of 10^−5 M. To generate concentration-response curves, four compounds per plate were tested in duplicates in a concentration range between 10^−5 and 10^−11 M. The duplicate values were averaged. In either, HTS or CoRe format each compound was tested on at least 3 separate plates using cells from different passages to give an n≧3.
# hEP4/Gqs5 = biological target: T4, hEP4/Gqs5 (Homo sapiens, UniProt P35408); experiment: FLIPR calcium signal, EP4; type: cell-based; conditions: HEK-293(EBNA) cells
# T4 construct: expressed in transfected cells; host or cells: HEK-293(EBNA)
# T4 sequence (P35408 whole entry): as the sequence (P35408 whole entry) above
# Experimental: as §4, §5, §6, §7
# hEP2/Gqs5 = biological target: T5, hEP2/Gqs5 (Homo sapiens, UniProt P43116); experiment: FLIPR calcium signal, EP2; type: cell-based; conditions: HEK-293(EBNA) cells
# T5 construct: expressed in transfected cells; host or cells: HEK-293(EBNA)
# T5 sequence (P43116 whole entry): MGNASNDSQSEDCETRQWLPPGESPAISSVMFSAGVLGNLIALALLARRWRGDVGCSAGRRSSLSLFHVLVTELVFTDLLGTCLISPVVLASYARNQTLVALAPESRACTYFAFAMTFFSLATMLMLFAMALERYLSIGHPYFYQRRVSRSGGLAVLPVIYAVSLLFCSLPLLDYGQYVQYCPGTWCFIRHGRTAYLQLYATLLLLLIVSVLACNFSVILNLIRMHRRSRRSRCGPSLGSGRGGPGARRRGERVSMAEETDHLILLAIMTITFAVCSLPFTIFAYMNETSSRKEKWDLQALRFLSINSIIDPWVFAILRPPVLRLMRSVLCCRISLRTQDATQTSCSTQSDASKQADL
# Experimental: as §4, §5, §6, §7
# hTP = biological target: T6, hTP (Homo sapiens, UniProt P21731); experiment: FLIPR calcium signal, hTP; type: cell-based; conditions: read-out: Other Receptors (EC50 in nM) hTP
# T6 construct: expressed in transfected cells; host or cells: HEK-293(EBNA)
# T6 sequence (P21731 1-343): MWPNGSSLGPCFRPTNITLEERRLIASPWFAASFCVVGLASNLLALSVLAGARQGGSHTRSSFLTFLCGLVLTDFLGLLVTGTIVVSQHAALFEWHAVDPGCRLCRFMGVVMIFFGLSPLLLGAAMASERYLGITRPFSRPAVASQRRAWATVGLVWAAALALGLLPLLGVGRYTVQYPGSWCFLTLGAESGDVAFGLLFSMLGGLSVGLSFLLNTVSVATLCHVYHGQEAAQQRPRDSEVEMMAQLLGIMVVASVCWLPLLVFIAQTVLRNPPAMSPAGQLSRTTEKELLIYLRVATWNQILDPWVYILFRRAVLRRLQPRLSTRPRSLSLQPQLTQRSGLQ
# Experimental: as §4, §5, §6
# Compounds were tested in a high-throughput (HTS) or concentration-response (CoRe) format. […]
# [3] = 0.001%, once daily for 5 days, at 50 h
# T1 sequence (P43116 whole entry): as the sequence (P43116 whole entry) above
"maximum ocular surface hyperemia (OSH) score (normotensive dogs; 0.001%, once daily for 5 days, at 26 h)",maximum ocular surface hyperemia (OSH) score (normotensive dogs; [3]),EC50 (EP2 [1]),Ki (EP4 receptors),Ki (EP2 [2]),EC50 (hDP/Gqs5),EC50 (hEP4/Gqs5),EC50 (hEP2/Gqs5),"maximum ocular surface hyperemia (OSH) score (normotensive dogs; 0.0001%, once daily for 5 days, at 74 h)","maximum ocular surface hyperemia (OSH) score (normotensive dogs; 0.0005%, once daily for 5 days, at 50 h)","maximum ocular surface hyperemia (OSH) score (normotensive dogs; 0.01%, once daily for 5 days, at 26 h)",EC50 (hTP),"maximum ocular surface hyperemia (OSH) score (normotensive dogs; 0.01%, once daily for 5 days, at 74 h)","maximum ocular surface hyperemia (OSH) score (normotensive dogs; 0.001%, once daily for 4 days, at 74 h)",SMILES
,,284 nM,> 10000 nM,502 nM,,,10200 nM,,,,,,,"OCc1ccc(CCC[C@@H]2[C@@H](CCc3cc(Cl)cc(Cl)c3)[C@H](O)C[C@H]2Cl)s1 [compound 13, (1R,2R,3R,4R)-4-chloro-2-(3,5-dichlorophenethyl)-3-(3-(5-(hydroxymethyl)thiophen-2-yl)propyl)cyclopentanol]"
,1.8,0.09 nM,616 nM,0.2 nM,,> 10000 nM,18 nM,0.8,1.75,2.5,> 10000 nM,,,"O=C(O)c1ccc(CCC[C@@H]2[C@@H](CCc3cc(Cl)cc(Cl)c3)[C@H](O)C[C@H]2Cl)s1 [11a, 5-(3-((1R,2R,3R,5R)-5-chloro-2-(3,5-dichlorophenethyl)-3-hydroxycyclopentyl)propyl)thiophene-2-carboxylic acid]"
,,0.8 nM,394 nM,22 nM,,10200 nM,3270 nM,,,,4620 nM,0.8,,"O=C(O)CCCCCC[C@@H]1[C@@H](CCc2cc(Cl)cc(Cl)c2)[C@H](O)C[C@H]1Cl [compound 6, 7-{(1R,2R,3R,5R)-5-Chloro-2-[2-(3,5-dichloro-phenyl)-ethyl]-3-hydroxy-cyclopentyl}-heptanoic acid]"

# Continued, molecule first:
SMILES,"maximum ocular surface hyperemia (OSH) score (normotensive dogs; 0.001%, once daily for 5 days, at 26 h)",maximum ocular surface hyperemia (OSH) score (normotensive dogs; [3]),EC50 (EP2 [1]),Ki (EP4 receptors),Ki (EP2 [2]),EC50 (hDP/Gqs5),EC50 (hEP4/Gqs5),EC50 (hEP2/Gqs5),"maximum ocular surface hyperemia (OSH) score (normotensive dogs; 0.0001%, once daily for 5 days, at 74 h)","maximum ocular surface hyperemia (OSH) score (normotensive dogs; 0.0005%, once daily for 5 days, at 50 h)","maximum ocular surface hyperemia (OSH) score (normotensive dogs; 0.01%, once daily for 5 days, at 26 h)",EC50 (hTP),"maximum ocular surface hyperemia (OSH) score (normotensive dogs; 0.01%, once daily for 5 days, at 74 h)","maximum ocular surface hyperemia (OSH) score (normotensive dogs; 0.001%, once daily for 4 days, at 74 h)"
"CC(C)OC(=O)c1ccc(CCC[C@@H]2[C@@H](CCc3cc(Cl)cc(CO)c3)[C@H](O)C[C@H]2Cl)s1 [compound 18, Isopropyl 5-(3-((1R,2R,3R,5R)-5-chloro-2-(3-chloro-5-(hydroxymethyl)phenethyl)-3-hydroxycyclopentyl)propyl)thiophene-2-carboxylate]",0.9,,,,,,,,,,,,,
"O=C(O)c1ccc(CCC[C@@H]2[C@@H](CCc3cc(Cl)cc(CO)c3)[C@H](O)C[C@H]2Cl)s1 [11c, 5-(3-((1R,2R,3R,5R)-5-chloro-2-(3-chloro-5-(hydroxymethyl)phenethyl)-3-hydroxycyclopentyl)propyl)thiophene-2-carboxylic acid]",,0.8,0.08 nM,437 nM,1 nM,2940 nM,> 10000 nM,86 nM,,,,,,
"Cc1cc(C)cc(CC[C@@H]2[C@@H](CCCc3ccc(C(=O)O)s3)[C@H](Cl)C[C@H]2O)c1 [11e, 5-(3-((1R,2R,3R,5R)-5-chloro-2-(3,5-dimethylphenethyl)-3-hydroxycyclopentyl)propyl)thiophene-2-carboxylic acid]",,,0.4 nM,966 nM,3 nM,15300 nM,> 10000 nM,287 nM,,,,,,
"O=C(O)c1ccc(CCC[C@@H]2[C@@H](CCc3cc(Cl)nc(Cl)c3)[C@H](O)C[C@H]2Cl)s1 [11b, 5-(3-((1R,2R,3R,5R)-5-chloro-2-(2-(2,6-dichloropyridin-4-yl)ethyl)-3-hydroxycyclopentyl)propyl)-thiophene-2-carboxylic acid]",,,0.05 nM,582 nM,1 nM,,> 10000 nM,13 nM,,,,,,1.9
